In US20230085307A1, “PYRIDAZINONE COMPOUND AND HERBICIDE” (NISSAN CHEMICAL CORPORATION, priority 2019, published 2023):

Key:
Italian ryegrass = assay: Test Example 4: herbicidal effect by soil treatment (Table 19, symbol K); format: in vivo, Italian ryegrass (Lolium multiflorum); conditions: amount of applied herbicide 320 g/ha
Outline: (§1)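 Herbicidal effect was rated 3 weeks after treatment, using the scoring criteria of an earlier test. The compound, formulated as an emulsion and diluted in water to a set herbicide amount, had been sprayed uniformly on soil over freshly sown seeds. Growth took place in a greenhouse at 25° C. to 30° C.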

blackgrass [1] = assay: Test Example 5: herbicidal effect by foliage application, plastic box (Table 20, symbol J); format: in vivo, blackgrass (Alopecurus myosuroides); conditions: 320 g/ha, foliage application after 14-day growth, evaluated three weeks after application
Outline: (§2)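 Foliar spray test: emulsion formulation diluted in water to a set application rate, sprayed onto 14-day-old plants raised in diluvial soil at 25° C to 30° C under glass. Both herbicidal effect and crop effect rated visually three weeks later.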

barnyard grass [2] = assay: Test Example 4: herbicidal effect by soil treatment (Table 19, symbol H); format: in vivo, barnyard grass (Echinochloa crus-galli); conditions: amount of applied herbicide 320 g/ha
Outline: as §1

Japanese bulrush [3] = assay: Test Example 1: herbicidal activity, application before weed generation under submerged conditions (Table 16, symbol B); format: in vivo, Japanese bulrush (Schoenoplectus juncoides); conditions: amount of applied herbicide 320 g/ha
Outline: (§3)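 Submerged Wagner pots (alluvial soil, 4 cm water) sown with weed seeds and planted with 2.5-leaf rice seedlings; emulsifiable concentrate diluted in water applied to water surface on sowing day. Held in greenhouse at 25-30 °C; injury scored 0-5 by herbicidal rate after three weeks.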

southern crabgrass = assay: Test Example 4: herbicidal effect by soil treatment (Table 19, symbol F); format: in vivo, southern crabgrass (Digitaria ciliaris); conditions: amount of applied herbicide 320 g/ha
Outline: as §1

green foxtail = assay: Test Example 5: herbicidal effect by foliage application, plastic box (Table 20, symbol G); format: in vivo, green foxtail (Setaria viridis); conditions: 320 g/ha, foliage application after 14-day growth, evaluated three weeks after application
Outline: as §2

blackgrass [4] = assay: Test Example 4: herbicidal effect by soil treatment (Table 19, symbol J); format: in vivo, blackgrass (Alopecurus myosuroides); conditions: amount of applied herbicide 320 g/ha
Outline: as §1

wild oat [5] = assay: Test Example 5: herbicidal effect by foliage application, plastic box (Table 20, symbol I); format: in vivo, wild oat (Avena fatua); conditions: 320 g/ha, foliage application after 14-day growth, evaluated three weeks after application
Outline: as §2

oval-leafed pondweed = assay: Test Example 2: herbicidal activity, application during weed generation under submerged conditions (Table 17, symbol C); format: in vivo, oval-leafed pondweed (Monochoria vaginalis); conditions: AAH 320 g/ha; application during weed generation, submerged conditions
Outline: (§4)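 In this pot test, flooded alluvial soil (water depth 4 cm) holds all three species sown as a mixture. Once seedlings have one to two leaves, the compound's emulsion, thinned with water to the intended dose, is poured on the water; grading follows after three weeks on the earlier criteria.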

Japanese bulrush [6] = assay: Test Example 2: herbicidal activity, application during weed generation under submerged conditions (Table 17, symbol B); format: in vivo, Japanese bulrush (Schoenoplectus juncoides); conditions: AAH 320 g/ha; application during weed generation, submerged conditions
Outline: as §4

redroot pigweed [7] = assay: Test Example 4: herbicidal effect by soil treatment (Table 19, symbol N); format: in vivo, redroot pigweed (Amaranthus retroflexus); conditions: amount of applied herbicide 320 g/ha
Outline: as §1

wild oat [8] = assay: Test Example 4: herbicidal effect by soil treatment (Table 19, symbol I); format: in vivo, wild oat (Avena fatua); conditions: amount of applied herbicide 320 g/ha
Outline: as §1

barnyard grass [9] = assay: Test Example 5: herbicidal effect by foliage application, plastic box (Table 20, symbol H); format: in vivo, barnyard grass (Echinochloa crus-galli); conditions: 320 g/ha, foliage application after 14-day growth, evaluated three weeks after application
Outline: as §2

late watergrass = assay: Test Example 1: herbicidal activity, application before weed generation under submerged conditions (Table 16, symbol A); format: in vivo, late watergrass (Echinochloa oryzicola); conditions: amount of applied herbicide 320 g/ha
Outline: as §3

redroot pigweed [10] = assay: Test Example 5: herbicidal effect by foliage application, plastic box (Table 20, symbol N); format: in vivo, redroot pigweed (Amaranthus retroflexus); conditions: 320 g/ha, foliage application after 14-day growth, evaluated three weeks after application
Outline: as §2

chickweed = assay: Test Example 5: herbicidal effect by foliage application, plastic box (Table 20, symbol P); format: in vivo, common chickweed (Stellaria media); conditions: 320 g/ha, foliage application after 14-day growth, evaluated three weeks after application
Outline: as §2

SMILES	Herbicidal effect by soil treatment, K: Italian ryegrass (Italian ryegrass)	herbicidal effect on J: blackgrass (evaluation grade 0-5) (blackgrass [1])	Herbicidal effect by soil treatment, H: barnyard grass (barnyard grass [2])	Herbicidal effect, B: Japanese bulrush (Japanese bulrush [3])	Herbicidal effect by soil treatment, F: southern crabgrass (southern crabgrass)	herbicidal effect on G: green foxtail (evaluation grade 0-5) (green foxtail)	Herbicidal effect by soil treatment, J: blackgrass (blackgrass [4])	herbicidal effect on I: wild oat (evaluation grade 0-5) (wild oat [5])	herbicidal effect rating, C: oval-leafed pondweed (oval-leafed pondweed)	herbicidal effect rating, B: Japanese bulrush (Japanese bulrush [6])	Herbicidal effect by soil treatment, N: redroot pigweed (redroot pigweed [7])	Herbicidal effect by soil treatment, I: wild oat (wild oat [8])	herbicidal effect on H: barnyard grass (evaluation grade 0-5) (barnyard grass [9])	Herbicidal effect, A: late watergrass (late watergrass)	herbicidal effect on N: redroot pigweed (evaluation grade 0-5) (redroot pigweed [10])	herbicidal effect on P: chickweed (evaluation grade 0-5) (chickweed)
COc1ccccc1-c1sc2cc(SC)ccc2c1-c1c(O)c(C)nn(C)c1=O [3-163]	3 (Herbicidal rate of 40% or more and less than 70%)	5 (Herbicidal rate of 90% or more (almost completely withered))	5 (Herbicidal rate of 90% or more (almost completely withered))	3 (Herbicidal rate of 40% or more and less than 70%)	4 (Herbicidal rate of 70% or more and less than 90%)	5 (Herbicidal rate of 90% or more (almost completely withered))	3 (Herbicidal rate of 40% or more and less than 70%)	5 (Herbicidal rate of 90% or more (almost completely withered))	0 (Herbicidal rate of 5% or less (almost no effect))	0 (Herbicidal rate of 5% or less (almost no effect))	5 (Herbicidal rate of 90% or more (almost completely withered))	0 (Herbicidal rate of 5% or less (almost no effect))	5 (Herbicidal rate of 90% or more (almost completely withered))	3 (Herbicidal rate of 40% or more and less than 70%)	5 (Herbicidal rate of 90% or more (almost completely withered))	5 (Herbicidal rate of 90% or more (almost completely withered))
CCCOc1ccc(-c2sc3c(F)cccc3c2-c2c(OC(=O)CCC)c(C)nn(C)c2=O)cc1 [4-010]	2 (Herbicidal rate of 20% or more and less than 40%)	4 (Herbicidal rate of 70% or more and less than 90%)	0 (Herbicidal rate of 5% or less (almost no effect))	0 (Herbicidal rate of 5% or less (almost no effect))	0 (Herbicidal rate of 5% or less (almost no effect))	3 (Herbicidal rate of 40% or more and less than 70%)	0 (Herbicidal rate of 5% or less (almost no effect))	0 (Herbicidal rate of 5% or less (almost no effect))	3 (Herbicidal rate of 40% or more and less than 70%)	0 (Herbicidal rate of 5% or less (almost no effect))	4 (Herbicidal rate of 70% or more and less than 90%)	0 (Herbicidal rate of 5% or less (almost no effect))	5 (Herbicidal rate of 90% or more (almost completely withered))	3 (Herbicidal rate of 40% or more and less than 70%)	5 (Herbicidal rate of 90% or more (almost completely withered))	5 (Herbicidal rate of 90% or more (almost completely withered))
CCCC(=O)Oc1c(C)nn(C)c(=O)c1-c1c(-c2ccc(OC)cc2)sc2c(Cl)cccc12 [4-024]	0 (Herbicidal rate of 5% or less (almost no effect))	0 (Herbicidal rate of 5% or less (almost no effect))	0 (Herbicidal rate of 5% or less (almost no effect))	2 (Herbicidal rate of 20% or more and less than 40%)	0 (Herbicidal rate of 5% or less (almost no effect))	4 (Herbicidal rate of 70% or more and less than 90%)	0 (Herbicidal rate of 5% or less (almost no effect))	0 (Herbicidal rate of 5% or less (almost no effect))	0 (Herbicidal rate of 5% or less (almost no effect))	0 (Herbicidal rate of 5% or less (almost no effect))	3 (Herbicidal rate of 40% or more and less than 70%)	0 (Herbicidal rate of 5% or less (almost no effect))	4 (Herbicidal rate of 70% or more and less than 90%)	3 (Herbicidal rate of 40% or more and less than 70%)	5 (Herbicidal rate of 90% or more (almost completely withered))	5 (Herbicidal rate of 90% or more (almost completely withered))
CCCC(=O)Oc1c(C)nn(C)c(=O)c1-c1c(-c2ccccc2OCC)sc2c(Cl)cccc12 [4-026]	0 (Herbicidal rate of 5% or less (almost no effect))	3 (Herbicidal rate of 40% or more and less than 70%)	3 (Herbicidal rate of 40% or more and less than 70%)	3 (Herbicidal rate of 40% or more and less than 70%)	3 (Herbicidal rate of 40% or more and less than 70%)	5 (Herbicidal rate of 90% or more (almost completely withered))	0 (Herbicidal rate of 5% or less (almost no effect))	0 (Herbicidal rate of 5% or less (almost no effect))	2 (Herbicidal rate of 20% or more and less than 40%)	3 (Herbicidal rate of 40% or more and less than 70%)	2 (Herbicidal rate of 20% or more and less than 40%)	0 (Herbicidal rate of 5% or less (almost no effect))	5 (Herbicidal rate of 90% or more (almost completely withered))	5 (Herbicidal rate of 90% or more (almost completely withered))	5 (Herbicidal rate of 90% or more (almost completely withered))	5 (Herbicidal rate of 90% or more (almost completely withered))
